# Measurements: US12403129B2, “Isotope-enriched 3-amino-1-propanesulfonic acid derivatives for the treatment of cerebrovascular disease” (RISEN (SUZHOU) PHARMA TECH CO., LTD., priority 2021, dated 2025)
# “Also recorded” adds a separate entry of the source.
# What was measured:
# [1] = tested on: PSD95; assay: PSD95 expression by Western blotting, multiple cerebral infarction dementia rats; format: in vivo, SD rats; details: compared with the model group, p<0.05
# Procedure: (§1) 135 SPF grade SD rats (75 females, 60 males, weighing 200-220 g) were used. Anesthesia was performed by intraperitoneal injection of 3.5% chloral hydrate (350 mg/kg). After dorsal fixation, neck hair removal and iodophor disinfection, animals were cut along the middle of the neck to separate the right common carotid artery, external carotid artery and internal carotid artery. […]
# (§2) The main pathological indexes included investigation of the improvement of learning and memory impairment in the dementia model animal by test compound using behavioral experimental methods such as Y maze, new object discrimination, Morris water maze and passive avoidance test (dark avoidance); investigation of the protective effect of test compound on mitochondria by detecting the content of ATP in hippocampus and cortex of rats; and investigation of levels of oxidative stress in the rat brain by measuring activity of superoxide dismutase (SOD, which is an oxygen free-radical scavenger), glutathione peroxidase (GSH-Px, which scavenges lipid peroxides induced by reactive oxygen species and —OH), nitric oxide synthase (NOS), malondialdehyde (MDA), and nitric oxide (NO). […] Expression of synaptic associated proteins SYP and PSD95 was detected by Western blotting. […] Experimental results were statistically analyzed using IBM SPSS 21.0 software. […]
# [2] = tested on: neuronal cells in hippocampal CA1 area and CA3 area and cerebral cortex; assay: Neuronal cell morphology in ischemia-reperfusion dementia mice; format: in vivo, C57BL/6J mice; details: compared with the model group
# Procedure: 140 healthy C57BL/6J mice, including 70 males and 70 females, were used. 1% Pentobarbital Sodium (50 mg/kg) was injected intraperitoneally to anesthetize the mice. The back position was fixed, the neck hair was removed, and the common carotid arteries were cut along the middle of the neck after iodophor disinfection. The common carotid arteries were separated, clamped with a noninvasive artery clamp for 15 minutes, released for 10 minutes, and then clamped for 10 minutes. Penicillin powder was then applied to suture muscles and skin. The sham operation group was not clamped, and other operations were the same as for the model group. […] Mice were divided into 6 groups: sham operation group, model group, positive control group (donepezil) and test compound group (different doses). Test compounds were administered by gavage to each group on the next day of modeling. The compound group was given compounds once a day in the morning and evening, and the volume of each gavage was 10 ml/kg. Half of the animals in the sham operation group and the model group were given the same amount of distilled water, and half of the animals were given the same amount of 1% sodium carboxymethylcellulose solution. […]
# The main pathological index included: investigation of the improvement of learning and memory impairment by the compound in the pathogenic model of cerebral ischemia-reperfusion using behavioral experimental methods such as Y maze, new object discrimination, spontaneous activity, Morris water maze and passive avoidance experiment (dark avoidance); investigation of the ultrastructure of nerve cells (including nucleus, mitochondria and synapse) by HE staining and immunofluorescence; detection of expression of synaptic associated proteins SYP and PSD95 by Western blotting; and detection of expression of apoptosis-related proteins Bcl-2 and Bax by Western blotting. […] Experimental results were analyzed statistically using IBM SPSS 21.0 software. […]
# [3] = cited from earlier work
# [4] = tested on: rat model of dementia caused by multiple cerebral infarction; assay: Cognitive tests in rat model of dementia caused by multiple cerebral infarction; format: in vivo, SD rats; details: for Discrimination coefficient for new objects, p compared with model group / Priority index for new objects, p compared with model group: n = 12-14
# Procedure: 135 SPF grade SD rats (75 females, 60 males, weighing 200-220 g) were used. Anesthesia was performed by intraperitoneal injection of 3.5% chloral hydrate (350 mg/kg). After dorsal fixation, neck hair removal and iodophor disinfection, animals were cut along the middle of the neck to separate the right common carotid artery, external carotid artery and internal carotid artery. The common carotid artery was temporarily clamped by the artery clamp, the left external carotid artery was retrogradely punctured to the beginning of the left internal carotid artery with a pediatric scalp needle, and then 0.4 ml of embolic normal saline suspension was slowly injected with a syringe (the preparation of embolic normal saline suspension was as follows: blood was collected from the abdominal aorta of the same rat, dried naturally in a 37° C. incubator, and prepared for 80-200 minutes to form a blood clot; during application, 0.3 ml normal saline was added to every 10 mg blood clot), and the common carotid artery clamp was opened at the same time, then the external carotid artery was ligated and the skin was sutured. In the sham operation group, 0.4 ml normal saline was used instead of embolic suspension. The experimental animals were randomly divided into 6 groups according to weight balance, as follows: sham operation group, model group, positive control group (donepezil) and test compound group (different doses). There were 12-14 rats in each group. The animals in each group began to give drugs by gavage after modeling until the end of the experiment. The animals underwent Y maze experiment on the 16th day of administration, new object discrimination experiment on the 17th-20th day, Morris water maze experiment on the 22nd-27th day, and dark avoidance experiment on the 28th-29th day. On the 30th day, animals were sacrificed and tissues harvested for analysis.
# The main pathological indexes included investigation of the improvement of learning and memory impairment in the dementia model animal by test compound using behavioral experimental methods such as Y maze, new object discrimination, Morris water maze and passive avoidance test (dark avoidance); investigation of the protective effect of test compound on mitochondria by detecting the content of ATP in hippocampus and cortex of rats; and investigation of levels of oxidative stress in the rat brain by measuring activity of superoxide dismutase (SOD, which is an oxygen free-radical scavenger), glutathione peroxidase (GSH-Px, which scavenges lipid peroxides induced by reactive oxygen species and —OH), nitric oxide synthase (NOS), malondialdehyde (MDA), and nitric oxide (NO). The ultrastructure of nerve cells (including nucleus, mitochondria and synapse) was investigated using immunofluorescence and transmission electron microscope. Expression of synaptic associated proteins SYP and PSD95 was detected by Western blotting. Experimental results for compound 4 on the concentration of nitric oxide (NO), the activity of nitric oxide synthase (NOS) and the ultrastructure of nerve cells in the rat model of dementia caused by multiple cerebral infarction are shown in FIGS. 7-11. Experimental results were statistically analyzed using IBM SPSS 21.0 software. The differences between groups were compared by one-way ANOVA or two-way ANOVA (water maze directional navigation) and LSD test.
# [5] = tested on: MBP; assay: MBP expression, multiple cerebral infarction dementia rats; format: in vivo, SD rats; details: compared with the model group, p<0.05
# Procedure: as §1, §2
# [6] = 2-h time point, oral, 0.72 mmol/kg
# [7] = Test group vs model group, n = 12-14, dose not given
# [8] = first listing in Table VII, Test group vs model group
# [9] = second listing in Table VII, Test group vs model group
compound,measurement,setting,value
"[2H]C([2H])(CCS(=O)(=O)O)NC(=O)[C@@H](N)C(C)C [compound 4, 3-((L-valyl)amino)-3,3-dideuterium-1-propanesulfonic Acid]",PSD95 expression,[1],significantly increased
same,arrangement and morphology of neuronal cells in hippocampal CA1 area and CA3 area,[2],significantly improved
same,deep staining pyknosis of nuclei in cerebral cortex,[2],significantly reduced
same,deep staining pyknosis of nuclei,[2]; hippocampal CA1 and CA3 area,significantly reduced
same,concentration of metabolite (2-carboxy-1-ethanesulfonic acid) in plasma compared to 3APS (of natural abundance),[3]; [6],much lower
same,plasma drug concentration compared to 3APS (of natural abundance),[3]; [6],higher
same,plasma drug exposure compared to 3APS (of natural abundance),"[3]; mole-equivalent oral dose (0.72 mmol/kg), mouse plasma",improved plasma drug exposure significantly; also recorded: even greater improvement of drug exposure
same,increase of Cmax for the drug concentration,"[3]; mole-equivalent oral dose, mouse plasma, versus 3APS of natural abundance",~2 fold
same,drug metabolism / metabolic profile compared to 3APS,"[3]; mole-equivalent oral dose, mouse",delayed drug metabolism
same,conversion of prodrug to compound 1 in the subject,"[3]; oral, mouse plasma",converted easily to compound 1
same,"Percentage of swimming distance, p compared with model group",[4]; [7],p < 0.001
same,"Spontaneous alternating response rate, p compared with model group",[4]; [7],p < 0.001
same,"Swimming time in target quadrant, p compared with model group",[4]; [7],p < 0.05
same,"The incubation period for entering the darkroom, p compared with model group",[4]; [7],p < 0.05
same,"Times of threading, p compared with model group",[4]; [7],p < 0.05
same,"Discrimination coefficient for new objects, p compared with model group",[4]; [8],p < 0.05
same,"Priority index for new objects, p compared with model group",[4]; [8],p < 0.05
same,"working memory, image recognition and memory, spatial memory and long-term memory impairment",[4]; rat model of dementia caused by multiple infarction,may improve
same,discrimination coefficient to new objects in the new object discrimination experiment,"[4]; rats, gavage",can improve
same,escape latency of directional navigation,"[4]; rats, gavage",can improve
same,number of errors entering the dark room in the dark avoidance experiment,"[4]; rats, gavage",can improve
same,number of times of crossing the platform,"[4]; rats, gavage",can improve
same,percentage of swimming distance in the target quadrant,"[4]; rats, gavage",can improve
same,priority index to new objects in the new object discrimination experiment,"[4]; rats, gavage",can improve
same,spontaneous alternating reaction rate in the Y maze,"[4]; rats, gavage",can improve
same,swimming time in the target quadrant,"[4]; rats, gavage",can improve
same,total swimming distance in the water maze test,"[4]; rats, gavage",can improve
same,"Discrimination coefficient for new objects, p compared with model group",[4]; [9],p < 0.05
same,"Priority index for new objects, p compared with model group",[4]; [9],p < 0.01
same,MBP expression,[5],increased
